Data from patent US20110256241A1, “METHODS AND COMPOSITIONS FOR THE TREATMENT OF CANCER” (TRASLATIONAL CANCER DRUGS PHARMA, S.L., priority 2008, published 2011).

Experiments:
[1] = test system: Primary BEC (human primary bronchial epithelial cells); experiment: Cell proliferation assay (MTT); type: cell-based; conditions: 48 h, inhibitor and unit not printed in table (MN58b, μM), read-out: IC50 48 h
Description: (§1) All cell lines used in this study were maintained under standard conditions of temperature (37° C.), humidity (95%), and carbon dioxide (5%). Human primary bronchial epithelial cells, NHBE (BEC) (Cambrex, CC-2541) were grown in BEGM (Bronchial Epithelial cell growth media) BulletKit (Cambrex, CC-3170). Human primary mammary epithelial cells, HMEC (Clonetics, CC-2551) were grown in MEBM medium supplemented with a bullet kit (Clonetics, CC-3150). Epithelial non-small lung cancer cells H460 and H1299, and small cell lung cancer cell lines H510 and H82 were maintained in RPMI supplemented with 10% Fetal Bovine Serum (FBS) (Life Technologies, Grand Island, N.Y.).
(§2) Cells were seeded on 96-well plates (BD, Falcon, Bioscience, San Jose, Calif., USA) at a density of 6000 cells/well, and incubated for 24 h under standard conditions. […] Absorbance is read at 595 nm in a VersaMax Microplate Reader (Molecular Devices, Sunnyvale, Calif., USA). For sensitization with acid ceramidase inhibitor, cells were pre-treated 4 hours with the correspondent IC50 for NOE before treatment with ChoK inhibitors. NOE (N-Oleoyl ethanolamine) was obtained from Calbiochem (La Jolla, Calif., USA).

H460 cells [2] = experiment: Cell proliferation assay (MTT); type: cell-based, human
Description: as §1
as §2, with “conditions. Then, cells were treated with different concentrations of the ChoK inhibitors (quadruplicates of each concentration) and maintained for 72 hours.” for “conditions.”
Thus, disruption in the levels of acid ceramidase may allow ChoK inhibitors to have a better effect in these cells. To verify this hypothesis, we used the previously characterized acid ceramidase inhibitor, N-Oleoylethanolamine (NOE) (Grijalvo S., Chem Phys Lipids. 2006; 144:69-84), to investigate if the inhibition of acid ceramidase sensitizes tumour cell lines to ChoK inhibitors. To that end, H460 cells were pre-treated with NOE for three hours to inhibit acid ceramidase.
H460 cells were pre-treated with these compounds for three hours to inhibit ceramidases. […] Furthermore, the combined use of ChoK inhibitors and acid ceramidase inhibitors provides a further stronger anticancer activity.

H1299 cells = experiment: Cell proliferation assay (MTT); type: cell-based, human
Description: as §1, §2

H460 xenografts = experiment: NSCLC xenografts, in vivo tumor growth inhibition; conditions: FIG. 7A, single agents
Description: Indicated cells were resuspended in DMEM just before inoculation (10^6 cells/0.1 ml), and injected subcutaneously in nu/nu immunosuppressed mice. Mice were kept under standard laboratory conditions according to the guidelines of the Spanish Government. When tumours reached a mean volume of 0.1 cm^3, mice were randomized to control and treated groups. Treatments with the antitumoral agents (and vehicle for control mice) were performed i.p. with following the indicated schedules. Tumors were monitored three times a week by measuring the major (D) and minor (d) diameters, and tumour volume was calculated by V=(D*d^2)/2. Statistical analysis of significant changes in tumour growth was calculated using SPSS software v. 13.0.

H460 cells [3] = experiment: Affymetrix gene expression analysis of 5-FU metabolization pathway; type: cell-based, human; parameters: key to RRM2 (Ribonucleotide Reductase) gene expression / TYMS (Thymidylate synthetase) gene expression / DUT (Deoxyuridine triphosphatase) gene expression: Signal Log Ratio, base 2 (1.0 = 2-fold increase, 0 = no change)
Description: The RNAs from the biopsies selected were isolated for microarrays and QT-PCR, using RNeasy Mini Kit (QIAGEN, Hilden, Germany) following the instructions of the manufactures. Samples were prepared and the array hybridized according to the Affymetrix GeneChip Expression Analysis Technical Manual. Hybridization to Affymetrix U133plus2 GeneChips (54,614 probe sets, representing 47,000 transcripts), staining, washing and scanning procedures were carried out at the Genomic Facility in the National Center of Biotechnology (Madrid, Spain) as described in www.affymetrix.com (Affymetrix, Santa Clara, Calif.). The Signal Log Ratio estimates the magnitude and direction of change of a transcript. The log scale used is base 2, thus a Signal Log Ratio of 1.0 indicates an increase of the transcript level by 2 fold and −1.0 indicates a decrease by 2 fold. A Signal Log Ratio of zero would indicate no change.
With the aim of further investigating the mechanism of ChoKIs sensitization to the antitumoral effect of 5-FU, a gene expression analysis of the 5-FU-metabolisation pathway was performed in H460 cells treated at different times with MN58b and RSM-932A using affymetrix technology.

DLD-1 colon cancer cells = experiment: QT-PCR validation of 5-FU metabolization pathway genes; type: cell-based, human; parameters: key: DR (Down-regulation); UR (Up-regulation)
Description: (§3) 1 μg of RNA was used to generate cDNA using High-Capacity cDNA Archive Kit (Applied Biosystems), and quantitative real-time PCR was carried out in triplicate using the ABI PRISM 7700 Sequence Detector (Applied Biosystems). GAPDH and 18S ribosomal mRNA were amplified as internal controls. Probes used for amplification were from Applied Biosystems as Taqman Gene Expression Assays (ASAH1: HS00602774—M1 Taqman Probe, ASAH2: HS00184096_M1 Taqman Probe and ASAH3: HS00370322_M1 Taqman Probe, DUT: HS00798995_S1 Taqman Probe, TYMS: HS00426591_M1 Taqman Probe, UPP1: HS00427695—M1 Taqman Probe, RRM2: HS00357247_G1 Taqman Probe). The 2-^ΔΔCt method was used (Livak K J., Methods. 2001; 25:402-8) to calculate the relative expression of each gene.

HT29 colon cancer cells = experiment: as above; type: cell-based, human; parameters: key: DR (Down-regulation); UR (Up-regulation)
Description: as §3

SW62 colon cancer cells = experiment: as above; type: cell-based, human; parameters: key: DR (Down-regulation); UR (Up-regulation)
Description: as §3

## CN(C)c1cc[n+](Cc2ccc(CCCCc3ccc(C[n+]4ccc(N(C)C)cc4)cc3)cc2)cc1 [MN58b, 1,4-(4-4′-Bis-((4-(dimethylamine)pyridinium-1-yl)methyl)diphenyl)butane dibromide]
[1]
  IC 50: 40.5 ± 6.2 µM
H460 cells [2]
  figure in parentheses after IC50 48 h (not defined; fold vs primary cells): 6
  figure in parentheses after IC50 72 h (not defined; fold vs primary cells): 8
  figure in parentheses after IC50 144 h (not defined; fold vs primary cells): 3
H1299 cells
  figure in parentheses after IC50 48 h (not defined; fold vs primary cells): 4
  figure in parentheses after IC50 72 h (not defined; fold vs primary cells): 8
  figure in parentheses after IC50 144 h (not defined; fold vs primary cells): 4
H460 xenografts
  Statistical significance (p), tumour growth: 0.09
H460 cells [3]; H460, 9 h
  DUT (Deoxyuridine triphosphatase) gene expression: −1.17
  RRM2 (Ribonucleotide Reductase) gene expression: −1.48
  TYMS (Thymidylate synthetase) gene expression: −1.30
  UPP1 (Uridine phosphorylase 1) gene expression: +1.54
H460 cells [3]; H460, 24 h
  DUT (Deoxyuridine triphosphatase) gene expression: −2.03
  RRM2 (Ribonucleotide Reductase) gene expression: −2.50
  TYMS (Thymidylate synthetase) gene expression: −2.39
  UPP1 (Uridine phosphorylase 1) gene expression: +1.76
DLD-1 colon cancer cells
  TYM expression: DR
  UPP expression: UR
HT29 colon cancer cells
  DUT expression: DR
  RRM expression: DR
  TYM expression: DR
SW62 colon cancer cells
  RRM expression: DR
  TYM expression: DR
  UPP expression: UR
